One test has as its target T1, CDK2/CycE (Homo sapiens, UniProt P24941).
T1 construct: purchased ProQinase GmbH (Freiburg, Germany); host or cells: insect cells (Sf9)
The test can be described thus: CDK2/CycE kinase assay (TR-FRET, 2 mM ATP). The test is classed as biochemical. To be noted: 2 mM ATP (high ATP); median; read-out: CDK2/CyclinE, 2 mM ATP (high ATP), IC50 (median). In a few lines:
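GST-tagged human CDK2 and CycE from Sf9 cells, about 10 ng/ml, pre-incubated 15 min at 22 °C with compound in Tris/HCl pH 8.0 buffer. Reaction with 2 mM ATP and 0.75 µM biotinylated peptide for 25 min at 22 °C. Phospho-RB antibody TR-FRET (665/620 nm ratio) read after 1 h; data normalised to no-inhibitor and no-enzyme controls.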

For the next test, the target named is T2, CDK9/CycT1 (Homo sapiens, UniProt P50750).
T2 construct: Recombinant full-length His-tagged human CDK9 and CycT1; purchased Life Technologies PV4131; host or cells: insect cells
T2 sequence (P50750 whole entry): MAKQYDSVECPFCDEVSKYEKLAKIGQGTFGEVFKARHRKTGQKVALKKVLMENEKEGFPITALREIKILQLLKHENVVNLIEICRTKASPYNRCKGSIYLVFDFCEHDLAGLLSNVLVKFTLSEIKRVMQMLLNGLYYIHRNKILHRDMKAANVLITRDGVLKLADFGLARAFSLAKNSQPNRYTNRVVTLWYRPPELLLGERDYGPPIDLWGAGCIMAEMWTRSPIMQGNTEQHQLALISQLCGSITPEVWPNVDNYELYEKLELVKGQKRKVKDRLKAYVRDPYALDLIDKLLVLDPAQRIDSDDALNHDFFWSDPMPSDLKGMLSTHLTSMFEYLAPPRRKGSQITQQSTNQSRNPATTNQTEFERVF
T2 sequence (O60563 whole entry partner): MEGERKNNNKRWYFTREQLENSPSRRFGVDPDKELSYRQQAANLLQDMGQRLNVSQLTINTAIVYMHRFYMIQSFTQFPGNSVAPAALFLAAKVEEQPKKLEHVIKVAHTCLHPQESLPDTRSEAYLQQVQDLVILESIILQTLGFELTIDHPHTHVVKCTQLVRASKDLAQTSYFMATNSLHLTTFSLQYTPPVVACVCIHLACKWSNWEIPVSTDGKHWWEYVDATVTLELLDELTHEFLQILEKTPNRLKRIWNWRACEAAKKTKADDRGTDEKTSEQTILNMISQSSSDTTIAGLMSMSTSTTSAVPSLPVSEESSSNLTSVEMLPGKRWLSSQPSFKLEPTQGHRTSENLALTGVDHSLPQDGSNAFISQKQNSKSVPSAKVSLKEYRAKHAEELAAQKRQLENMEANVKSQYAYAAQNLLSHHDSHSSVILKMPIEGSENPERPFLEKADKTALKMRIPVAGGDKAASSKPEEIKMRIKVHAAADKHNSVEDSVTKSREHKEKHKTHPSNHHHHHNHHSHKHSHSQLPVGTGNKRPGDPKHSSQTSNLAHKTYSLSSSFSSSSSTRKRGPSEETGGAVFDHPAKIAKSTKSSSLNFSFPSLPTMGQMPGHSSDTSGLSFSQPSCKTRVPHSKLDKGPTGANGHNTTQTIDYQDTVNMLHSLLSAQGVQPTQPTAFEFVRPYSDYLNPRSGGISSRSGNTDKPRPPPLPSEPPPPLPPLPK
The test can be described thus: CDK9/CycT1 high ATP kinase assay (TR-FRET, 2 mM ATP). The test is classed as biochemical. To be noted: 2 mM ATP (high ATP); median; read-out: CDK9/CyclinT1, 2 mM ATP (high ATP), IC50 (median). In outline:
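Full-length His-tagged human CDK9/CycT1 (insect cell, ~0.5 μg/mL) preincubated 15 min at 22 °C with compound in Tris pH 8.0, MgCl2, DTT buffer before reaction with biotinylated peptide substrate at high ATP (2 mM).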
(TR-FRET usually uses a lanthanide donor and a delayed reading to cut background.)

Test [1] deals with BRCA1 mRNA expression in MDA-MB-231 cells. The test can be described thus: qRT-PCR assay: BRCA1 mRNA expression in MDA-MB-231. The test is classed as cell-based, human. To be noted: Homo sapiens, MDA-MB-231, Inhibition of BRCA1 mRNA expression in MDA-MB-231 cells; median; read-out: RTqPCR-MDA-MB-231, IC50, BRCA1 (median). In outline:
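Cells were seeded at 200,000 cells/well, left 24 h, then exposed continuously to test substances for 24 h. Total RNA (600 ng) was reverse-transcribed to cDNA and amplified by qPCR, and transcript levels were normalised to GAPDH housekeeping expression.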

Some results are limits rather than exact numbers.

`Fc1cccc2[nH]c(CNc3nc(N4CCNCC4)nc4c(C5CC5)cnn34)nc12` [Example 182, 8-cyclopropyl-N-[(4-fluoro-1H-benzimidazol-2-yl)methyl]-2-(piperazin-1-yl)pyrazolo[1,5-a][1,3,5]triazin-4-amine]: the IC50 on CDK2/CycE was more than 20 µM; on CDK9/CycT1 it was more than 20 µM; in test [1], 0.00332 µM.

Consider `Fc1cccc2[nH]c(CNc3nc(N4CCOCC4)nc4c(C5CC5)cnn34)nc12` [Example 188, 8-cyclopropyl-N-[(4-fluoro-1H-benzimidazol-2-yl)methyl]-2-(morpholin-4-yl)pyrazolo[1,5-a][1,3,5]triazin-4-amine], for which the IC50 at CDK2/CycE was 15 µM; at CDK9/CycT1, more than 20 µM; in test [1], 0.00306 µM.

As to `CC(C)c1cnn2c(NCc3nc4ccccc4[nH]3)nc(Nc3ccncc3)nc12` [Example 14, N^4-[(1H-benzimidazol-2-yl)methyl]-8-(propan-2-yl)-N^2-(pyridin-4-yl)pyrazolo[1,5-a][1,3,5]triazine-2,4-diamine], the IC50 at CDK2/CycE was more than 20 µM; at CDK9/CycT1 it was more than 20 µM; in test [1], less than 0.03 µM.

The values are drawn from patent US20230117034A1, “PYRAZOLOTRIAZINES” (Bayer Aktiengesellschaft, priority 2019, published 2023).
